Several values for one entry are separate records, joined by “and”; a condition that tells them apart may be missing. Equal values may be shown once.

One assay deals with NF-κB signaling pathway. Nature of the assay: NF-κB-dependent luciferase reporter (5×κB-luciferase/pTK-Renilla), TNF-α-induced, HEK293T cells. The conditions noted are these: HEK293T screen, 24-well. The format is cell-based. As to the method: HEK293T or HeLa cells were seeded in 24-well plates and transiently transfected with the 5 × κB-luciferase and pTK-Renilla reporters using Lipofectamine 2000 (Invitrogen) for 18 h. The cells were then incubated with different concentrations of the compounds for the indicated times and subsequently stimulated with 10 ng/mL TNF-α for 2 h. The luciferase activity in the cell lysates was analyzed using the Dual Luciferase Reporter Assay System (Promega). The luciferase reporter assays were performed as previously described.
Supplementary Figure 1. RA-V has the best inhibitory effect on NF-κB signaling pathway among RAs. (a-b) HEK293T cells were transfected with the 5×κB-luciferase and pTK-Renilla reporters. Twenty-four hours after transfection, the cells were incubated with various concentrations of the indicated compounds for 6 h and then treated with 10 ng/ml TNF-α for 2 h before the luciferase activity assays. The data are presented as the means ± S.D. from three independent experiments. […]
Scheme for CB12 synthesis. (c) CB12 inhibited NF-κB reporter activity in a dose-dependent manner. The HEK293T cells were transfected with the 5×κB-luciferase and pTK-Renilla reporters. Twenty-four h after transfection, the cells were treated with various concentrations of CB12 for 6 h and then treated with 10 ng/ml TNF-α for 2 h before the luciferase activity assays. (d) […]
Supplementary Table 3: Screening data of small molecules
Category Parameter Description
Assay Type of assay Cell-based
Target NF-κB signaling pathway
Primary measurement Detection of Firefly luciferase enzyme activities and Renilla Luciferase expression
Key reagents 5 × κB-lucieferase and luciferase assay (Progema)
Assay protocol HEK293T cells were seeded in 24 -well plates and transiently transfected with 20 ng of 5×κB-luciferase and 2 ng of pTK-Renilla reporters using Lipofectamine
2000 (Invitrogen) for 18 h. The cells were then incubated with small molecules (10 μM) for 6 hours, and subsequently stimulated with 10 ng/ml TNF -α for 2 h. Luciferase activity of the cell lysates was analysed by the Dual Luciferase Reported Assay System
(Promega). The Firefly luciferase enzyme activities were determined for NF -κB signaling activities and normalized to Renilla Luciferase expression.
Library Library size approximately 200
Library composition natural and synthetic chemical compounds, including cyclopeptides, quinones and terpenes.
Source State Key Laboratory of Phytochemistry and Plant
Resources in West China, Kunming Institute of Botany, Chinese Academy of Sciences
Screen Format 24-well, Corning
Concentration(s) tested 10 μM
Reagent/ compound dispensing system Manual
Detection instrument and software Synergy 2 (BioTek)
Assay validation/QC Velcade inhibits NF-κB signaling pathway
Normalization The Firefly luciferase enzyme activities were normalized by Renilla Luciferase expression
Post-HTS analysis Hit criteria κB-luc/ Renilla ratio < 0.5 standard deviations from the […]
Hit rate Approximately 15%
Confirmation of hit purity and structure Compounds were verified by HPLC and NMR
In the case of `CC(C)C[C@H](NC(=O)[C@H](Cc1ccccc1)NC(=O)c1cnccn1)B(O)O` [Velcade, Bortezomib, reference compound], the “NF-κB signaling pathway (plate control, assay validation)” value is “inhibits”.

The same assay, now with this note: HEK293T; compounds 6 h, then 10 ng/ml TNF-α 2 h; means of three independent experiments; read-out: IC50 (μM), NF-κB reporter activity.
With RA-XXIV, the IC50 amounted to 11.9 µM.
The same measure, in the same setting: for Rubiyunnanin H the value was more than 15 µM.
Consider RA-III, for which the IC50 came to 1.1 µM.
The same measure, in the same setting: then O-seco-RA-V, with more than 15 µM.
Turning to RA-IV, the IC50 was determined as 10.6 µM.
The same measure, in the same setting: then RA-XII, with 1.85 µM; and Rubiyunnanin I, with more than 15 µM.
Same read-out and setting: for Rubicordifolin C the value was 6.87 µM; for Rubiyunnanin E, more than 15 µM.
Same read-out and setting: for Rubiyunnanin B the value was > 15 µM and 15.1 µM.
As for RA-XIII, the concentration for half-maximal inhibition (IC50) was more than 15 µM.
Consider RY-II, for which the IC50 was > 15 µM and 19 µM.
In the case of RA-XIII-OMe, the IC50 is more than 15 µM.
Same read-out and setting: for RA-XI isoform 1 the value was more than 15 µM.
Regarding Rubiyunnanin C, the half-inhibitory concentration (IC50) is more than 15 µM.
Same read-out and setting: for Rubiyunnanin D the value was more than 15 µM; for C-6β-oxy-RA-IV, 2.06 µM; for RA-XI isoform 2, more than 15 µM.
Same read-out and setting: then Rubiaschumanin C, with more than 15 µM; and Rubicordifolin A, with 3.41 µM.
Turning to Rubiaschumanin B, the IC50 was found to be 3.88 µM.
Still for that read-out and setting: for RA-I the value was 1.31 µM; for RA-VII, 0.089 µM; for Rubiaschumanin A, more than 15 µM.
The same measure, in the same setting: for Rubiyunnanin G the value was more than 15 µM; for Rubiyunnanin F, more than 15 µM.
For Rubiyunnanin A, the IC50 is more than 15 µM.

Another assay deals with T1, TAK1 (Homo sapiens, UniProt O43318).
T1 construct: expressed in transfected cells; host or cells: HEK293T
T1 sequence (O43318 1-579 isoform O43318-2): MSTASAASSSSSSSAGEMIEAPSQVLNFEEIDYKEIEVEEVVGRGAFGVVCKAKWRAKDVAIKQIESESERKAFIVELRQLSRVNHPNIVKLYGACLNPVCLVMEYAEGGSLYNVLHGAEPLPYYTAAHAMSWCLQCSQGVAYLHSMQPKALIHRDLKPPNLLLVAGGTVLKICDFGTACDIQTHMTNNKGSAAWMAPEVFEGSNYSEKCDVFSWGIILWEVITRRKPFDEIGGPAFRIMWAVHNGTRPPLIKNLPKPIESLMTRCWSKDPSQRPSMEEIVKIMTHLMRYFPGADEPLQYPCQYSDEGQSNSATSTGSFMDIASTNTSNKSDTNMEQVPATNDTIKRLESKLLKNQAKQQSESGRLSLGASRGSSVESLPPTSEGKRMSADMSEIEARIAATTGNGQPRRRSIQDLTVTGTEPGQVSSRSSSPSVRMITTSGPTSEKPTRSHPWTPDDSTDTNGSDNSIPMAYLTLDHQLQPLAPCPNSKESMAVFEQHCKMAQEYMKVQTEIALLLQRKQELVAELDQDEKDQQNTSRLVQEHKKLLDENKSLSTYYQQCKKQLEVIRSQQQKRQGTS
Nature of the assay: Streptavidin agarose pull-down with biotin-tagged probe CB12. As to conditions: lysates of HEK293T transfected with TAK1; RA-V in 10-fold excess. The format is binding.
Experimental: HEK293T cells were transfected with TAK1 for 24 h, then the cell lysates were incubated with biotin or CB12 followed by streptavidin agarose pull-down. […] HEK293T cells were transfected with the indicated plasmids for 24 h. The cell lysates were pulled down with streptavidin agarose and then immunoblotted with HA or Flag antibody. Each experiment was repeated at least three times
HEK293T cells were transfected with TAK1-N or TAK1-C for 24 h. The cells lysates were incubated with CB12 or biotin and precipitated with streptavidin-coated sepharose and were analyzed by immunoblotting with Flag antibody. b The model for RA-V binding to the crystal structure of the TAK1–TAB1 fusion protein (PDB 4GS6). […] HEK293T cells were transfected with TAK1 for 24 h, and then the cell lysates were incubated with biotin or CB12 before precipitation with streptavidin agarose. […] HeLa cells were incubated with various concentrations of RA-V for 12 h and then treated with 10 ng/mL TNF-α for 10 min. The cell lysates were prepared and western blotted with the indicated antibodies. Each experiment was repeated at least three times
HEK293T cells were harvested and lysed in RIPA buffer with protease inhibitors. […] The samples were separated by SDS-PAGE, and the bound proteins were detected using the indicated antibodies.
Consider `COc1cc(O)c2c(c1)/C=C/C[C@H](O)[C@H](O)C(=O)/C=C\C[C@H](C)OC2=O` [(5Z)-7-Oxozeaenol, reference compound], for which the “competition with the CB12–TAK1 interaction (pull-down)” value was “effectively competed”.

For the origin of these results see article PMC6006164, “Natural cyclopeptide RA-V inhibits the NF-κB signaling pathway by targeting TAK1” (Cell Death & Disease, 2018).
